# Measured values as given in patent US20070254023A1, “Perorally Administrable Antimicrobial Composition” (priority 2004, published 2007).
# Tested on: bifidobacteria
# Experiment: Effect of peroral administration on bifidobacteria of the gut in CBA mice
# Type: in vivo
# Settings: ten-day peroral course, tetracycline 750 mg/kg
# Text: Comparative experimental trials of the effect of peroral administration of antibiotics and an antibacterial composition comprising an antibiotic and lactulose on gut organisms and liver condition in CBA mice.
# Models of experimental pathology caused by peroral administration of ampicillin and tetracycline in large doses were used.
structure (smiles),measurement,value
CN(C)[C@@H]1C(O)=C(C(N)=O)C(=O)[C@@]2(O)C(O)=C3C(=O)c4c(O)cccc4[C@@](C)(O)[C@H]3C[C@@H]12 [tetracycline],contents of bifidobacteria in the large intestine,reduced the contents of bifidobacteria
